Experimental findings from patent US20140024683A1, “CHLORIDE CHANNEL AND CHLORIDE TRANSPORTER MODULATORS FOR THERAPY IN SMOOTH MUSCLE DISEASES” (priority 2011, published 2014) are described below.

Test [1] has as its system human airway smooth muscle. The test can be described thus: Relaxation of acetylcholine contraction in human airway smooth muscle strips. To be noted: 10 μM bumetanide alone. The protocol: Studies using de-identified human tissue were reviewed by the Columbia University Institutional Review Board and deemed not human subjects research. Tissues were obtained from healthy, normal organ donor discarded surgical waste subsequent to lung transplant surgery. Tissues were collected after transplant and placed in DMEM media (GIBCO) and bubbled overnight in 5% carbon dioxide and 95% oxygen at 4° C. The following morning, the smooth muscle tissue was carefully dissected under a dissecting microscope and the epithelium removed. The strips were anchored in the organ bath as described above using KH buffer of the same composition. The strips were allowed to equilibrate for 1 hour with buffer exchanges every 15 minutes and were treated with 10^−6 M tetrodotoxin, 10^−5 M pyrilamine, and 10^−5
M MK571. Strips were contracted with an EC50 dose of acetylcholine (Ach)
This experiment was then repeated with human airway smooth muscle to investigate clinical relevance as a model of bronchospasm in humans.

For test [2], the system named is human airway smooth muscle cells. The test can be described thus: Whole cell current clamp recording of membrane potential. Format: cell-based. The protocol: Induced electrophysiological changes in membrane potential and current were measured using traditional whole cell patch clamp methods. Immortalized human airway smooth muscle cells were grown to confluence on collagen-treated T25 flasks. Collagenase type IV in SmBM2 medium (Lonza, Walkersville, Md.) was used to release cells adherent to the collagen matrix in the flask. Medium with cells in suspension was then harvested in a 10-ml conical tube and centrifuged at 300×g. Supernatant was removed, and the pellet was resuspended in SmBM2 medium and transferred into collagen-treated glass bottom 1-cm Petri dishes at about 10% confluence. Each dish was then incubated at 37° C. and 5% CO2 for 1-4 hours for reattachment of cells to glass-bottom Petri dishes.
Glass-bottom dishes served as a disposable recording chamber. ALA VM-8, an 8-chamber pressure-driven drug application system, was used in a still bath of extracellular salt solution. Whole-cell intracellular voltage recordings under current clamp conditions were performed with a 2-kHz Bessel filter, recording at 10 kHz using an Axopatch 200b amplifier (Axon Instruments, Foster City, Calif., USA). Electrodes were pulled using a P-97 micropipette puller from 1.5-mm OD borosilicate capillary glass (Sutter Instruments, Novato, Calif., USA). Glass electrode resistances ranged from 5 to 10 MO with intracellular solution. Whole-cell intracellular current recordings under voltage-clamp conditions were performed with a 2-kHz Bessel filter, recording at 10 kHz using an Axopatch 200b amplifier. For current measurements (FIG. 11) intracellular solutions consisted of (in mM) 140 TEA-Cl, 5 MgATP, 5 EGTA, 1 MgCl2, 10 HEPES, and 5 CaCl2 (pH 7.2). Extracellular solution consisted of (in mM) 134 NaCl, 1.4 KCl, 10 HEPES, 1 MgCl2, 1.8 CaCl2, and 10 glucose (pH 7.4). This induced the classic spontaneously transient inward currents (STICs) and spontaneously transient outward currents (STOCs) well described in this cell type. STOCs are believed to represent activation of calcium activated potassium (KCa) channels while STICs are believed to represent activation of CaCCs. TEA-Cl was included in the buffer to enhance STICs which were then recorded during the addition of 100 μM niflumic acid. When recording TEA- and niflumic acid-induced responses on membrane potential (ΔmV), the intracellular solutions contained (in mM) 140 KCl, 5 MgATP, 5 EGTA, 1 MgCl2, 10 HEPES, and 5 CaCl2 (pH 7.2), and the extracellular solutions consisted of (in mM) 134 NaCl, 5 MgATP, 5 EGTA, 1 MgCl2, 10 HEPES, and 5 CaCl2 (pH 7.2). All recordings were analyzed on Clampfit 8.0 software (Molecular Devices).

Test [3] deals with guinea pig tracheal rings. The test can be described thus: Organ bath muscle force, TEA-induced contraction of guinea pig tracheal rings (Examples 1, 4, 13). The following applies: 10 mM TEA; 100 μM niflumic acid. The protocol: Epithelial denuded guinea pig tracheal rings were suspended in organ baths under 1 g resting tension with continuous digital recordings of muscle force. In separate studies, guinea pig airway smooth muscle cells were enzymatically dispersed and cultured.
Human muscle tissue was acquired from excess lung airways trimmed during surgery from healthy lung transplant donors. Acquired tissue was stored overnight at […]. Airway smooth muscle contractions measured ex vivo in organ baths were performed as previously described (Gallos et al., 2008; Gallos et al., 2009, Gallos et al., 2011; Gleason et al., 2010; Yim et al., 2011; Mitzuta et al., 2008). Closed guinea pig tracheal rings or strips of human airway smooth muscle (tracheal or main stem bronchus) were suspended in organ baths, which had 95% oxygen constantly perfusing through Dulbecco's Modified Eagle Medium. Rings were cut on the cartilaginous borders of the smooth muscle. The epithelial layer was dissected under microscopic assistance. Briefly, tissues were suspended in a water-jacketed (37° C.) 2-ml organ bath (Radnoti Glass Technology, Monrovia, Calif.) and attached to a Grass FT03 force transducer (Grass Telefactor, West Warwick, R.I.) coupled to a computer via BioPac hardware and Acqknowledge 7.3.3 software (Biopac Systems, Goleta, Calif.). Kreb's-Henseleit (KH) buffer was continuously bubbled with 95% oxygen and 5% carbon dioxide and tissues were allowed to equilibrate at 1 g (guinea pig) or 1.5 g (human) isotonic force for 1 hour with fresh KH buffer changes every 15 minutes.
Following equilibration, in guinea pig experiments, the capsaicin analog N-vanillylnonanamide (10 μM final) was added to the organ baths to first activate and then deplete nonadrenergic, noncholinergic nerves. […]. In experiments with human tissue, no vanillylnonanamide pretreatment was done. To avoid bias between treatment groups, tissues were contracted to individually calculated EC50 values for acetylcholine and tissues with similar Emax values were randomly assigned to treatments within individual experiments. Following extensive KH buffer changes (8-9 times) tissues were allowed to stabilize at isotonic resting tension (about 1.0 g). To remove confounding effects of other procontractile pathways, each bath received a complement of antagonists 20 minutes prior to subsequent contractile challenge. The antagonists included pyrilamine (10 μM; H1 histamine receptor antagonist), and tetrodotoxin (1 μM; blocker of endogenous cholinergic or C-fiber neuronal effects) in guinea pig experiments or pyrilamine and 10 μM MK571 (leukotriene receptor antagonist) in human tissue experiments. […]
Airway smooth muscle contractions measured ex vivo in organ baths were performed as set forth above. […]

Turning to `CCCCNc1cc(C(=O)O)cc(S(N)(=O)=O)c1Oc1ccccc1` [bumetanide], the “relaxation of acetylcholine contraction” value in test [1] is “failed to relax an acetylcholine contraction”.
With `O=C(O)c1cccnc1Nc1cccc(C(F)(F)F)c1` [niflumic acid], the “membrane potential (whole cell current clamp)” value in test [2] (100 μM niflumic acid) is reported as “hyperpolarizes the plasma membrane”. In addition, the “membrane potential (whole cell current clamp) after depolarization” value in test [2] (following depolarization with TEA chloride) is on record as “reverses membrane potential”. Further, the “relaxation of TEA-induced contraction” value in test [3] came out at 82.5%.
